Test results: patent US8841257B2, “Inhibitors of STAT3 and uses thereof” (Board of Regents, The University of Texas System, priority 2009, dated 2014)

Key:
STAT3 = STAT3 (Homo sapiens, UniProt P40763); test: Inhibition of STAT3 phosphorylation in BT20 breast tumor cells (western blot); type: cell-based; design: endogenous in cells; host or cells: BT20 breast tumor cells
Description: Inhibition of STAT3 in BT20 Breast Tumor Cells. General procedure: 35 mm petri dishes were plated with 300,000 BT20 cells in 2 mL RPMI1640 media containing 10% FBS, […], streptomycin, and glutamine. Prodrugs were dissolved in DMSO and were added to the cells with fresh media at varying concentrations. After 2 h the cells were washed with ice cold phosphate buffered saline. Washed cells were treated with lysis buffer (50 mM Hepes, pH 7.4, 150 mM NaCl, 1.5 mM MgCl2, 1 mM EGTA, 100 mM NaF, 10 mM sodium pyrophosphate, 10% glycerol, 1% Triton X-100, 1 mM PMSF, 1 mM Na3VO4, 10 μg/mL leupeptin and 10 μg/mL aprotinin). Cell-free detergent extracts were centrifuged at 15,000 rpm in a microcentriguge for 30 min at 4° C. and the protein concentrations of the supernatants determined. Aliquots containing 12 μg of protein were separated on 8% SDS-PAGE and were transferred to PVDF filters. The filters were blocked with 5% bovine serum albumin and were probed with pStat3^Y705 antibody followed by secondary antibody, whose signal was detected with an enhanced chemiluminescence kit (ECL, Amersham, Chicago, Ill.). Filters were stripped with stripping buffer (62.5 mM Tris, pH 6.8, 2% SDS, and 0.1 M 2-mercaptoethanol) at 50° C. for 30 min. Filters were then probed with total Stat3 antibody and visualized with chemiluminescence as above.
Because DMSO is toxic, other formulations were evaluated for potential use in animal models. The compound of Example 1 was dissolved in EtOH, 20% (w/v) Trappsol (hydroxypropyl β-cyclodextran, pharmaceutical grade), or a liposomal formulation to a concentration of 5 mM. These formulations were given to cells at 0.1, 0.5, and 5 μM concentrations. At two hours, cells were lysed and pSTAT3 levels were determined by Western Blot (FIG. 3). Different formulations have little effect on inhibition of STAT3. The compound of Example 1 was dissolved in DMSO, EtOH, Trappsol, or as a 10 mol % mixture in dimyristoylphosphatidyl choline and applied to BT20 cell in culture. After two hours, cells were lysed and pSTAT3 levels determined by Western blot. To prepare liposomes a solution of 1.0 mg of the compound of Example 1, 7.2 mg of DMPC, 0.41 mg of Tween 20 in 1.0 mL of tert-butanol was lyophilized. A control lipid formulation of 7.2 mg of DMPC and 0.41 mg of Tween 20 in 1.0 mL of tert-butanol was lyophilized. These samples were mixed with 236 μL of H2O and were vortexed and sonicated for 5 min.
The compounds are selective for STAT3 over STAT1 in BT20 breast tumor cells. BT20 cells prepared as above and were treated with 5 μM of the compound of Example 1 for two hours then were treated with 25 ng/mL of interferon γ (IFNγ). […] (FIG. 4, bottom panel).
Time course of inhibition of STAT3 phosphorylation in BT20 cells. BT20 cells were plated as above and treated with the compounds from Examples 1 and 6 and western blots were performed at varying time intervals.

normal cells = test: Effect on normal cells in the cell growth assay; type: cell-based
Description: Lung Tumor Cell Viability Assay: H1819, H1299 and H827 lung tumor cells were seeded in 6-well plates at a density of 6×10^4, 4×10^4 and 5×10^4 cells/well, respectively. Prodrugs were dissolved in DMSO to make a stock concentration of 500 μM. The following day the cells were treated either with DMSO alone or with 0.25 μM, 0.5 μM, 1.0 μM, 2.5 μM and 5.0 μM of the compounds from Example 1, Example 16, and Example 22. Seventy two h after treatment with the drug the cells were subjected to cell viability assay using trypan blue. […] Cells were plated and after 24 hr were treated with the compound of Example 16 in DMSO. After 72 hr, cells were counted. Note that vertical axes are different for each plot.

Chain of STAT3 (P40763 whole entry): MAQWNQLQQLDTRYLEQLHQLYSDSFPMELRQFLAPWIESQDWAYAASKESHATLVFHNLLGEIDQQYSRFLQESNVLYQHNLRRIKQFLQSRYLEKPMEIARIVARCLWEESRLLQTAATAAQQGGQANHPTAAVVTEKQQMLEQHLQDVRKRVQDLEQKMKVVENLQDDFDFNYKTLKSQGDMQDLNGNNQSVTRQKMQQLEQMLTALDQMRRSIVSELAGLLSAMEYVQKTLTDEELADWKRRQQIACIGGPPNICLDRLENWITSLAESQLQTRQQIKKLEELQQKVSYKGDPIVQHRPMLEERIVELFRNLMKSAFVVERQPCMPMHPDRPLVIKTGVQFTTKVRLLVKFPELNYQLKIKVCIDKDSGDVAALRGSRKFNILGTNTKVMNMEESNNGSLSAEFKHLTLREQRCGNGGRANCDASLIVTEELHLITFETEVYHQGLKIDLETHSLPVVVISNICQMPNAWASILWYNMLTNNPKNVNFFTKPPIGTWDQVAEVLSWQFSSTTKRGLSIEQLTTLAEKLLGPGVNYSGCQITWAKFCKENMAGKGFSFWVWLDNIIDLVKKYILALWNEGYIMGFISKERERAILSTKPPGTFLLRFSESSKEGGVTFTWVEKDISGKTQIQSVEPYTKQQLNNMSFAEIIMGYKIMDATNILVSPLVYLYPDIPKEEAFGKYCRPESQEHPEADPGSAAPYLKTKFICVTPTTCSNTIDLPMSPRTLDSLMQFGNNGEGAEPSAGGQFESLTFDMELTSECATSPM

Structure (SMILES) | increase in pSTAT3 formation on EGF stimulation (STAT3; 5 μM, 2 h, then EGF 50 ng/mL, BT20) | phosphorylation of STAT3 at the indicated time points (STAT3; 5 μM, BT-20 cells) | selectivity for STAT3 over STAT1 and AKT (STAT3; BT20 cells) | pSTAT3 inhibition compared with DMSO sample (STAT3; dissolved in EtOH, 0.1 μM, 2 h, BT20) | pSTAT3 inhibition compared with DMSO sample (STAT3; dissolved in EtOH, 0.5 and 5 μM, 2 h, BT20) | pSTAT3 inhibition compared with DMSO sample (STAT3; in 20% Trappsol HPB, 0.1 μM, 2 h, BT20) | pSTAT3 inhibition compared with DMSO sample (STAT3; in 20% Trappsol HPB, 0.5 and 5 μM, 2 h, BT20) | pSTAT3 inhibition compared with DMSO sample (STAT3; liposomal preparation (DMPC/Tween 20), 2 h, BT20) | effect on normal cells compared to vehicle DMSO (normal cells)
C/C(=C\C(=O)N[C@H]1CCc2cccc3c2N(C1=O)[C@H](C(=O)N[C@H](C)CCC(N)=O)C3)c1ccc(C(F)(F)P(=O)(OCOC(=O)C(C)(C)C)OCOC(=O)C(C)(C)C)cc1 [Example 1, (2E)-3-[4-[[bis[(2,2-dimethyl-1-oxopropoxy)methoxy]phosphinyl]difluoromethyl]phenyl]-but-2-enoyl-Haic-(R)-4-aminopentamide] | inhibited the increase in pSTAT3 formation | inhibit the phosphorylation of STAT3 | selective for STAT3 over STAT1 and AKT | did not inhibit as much as did the DMSO sample | comparable | did not inhibit as much as did the DMSO sample | comparable | inhibition comparable to DMSO | –
CCCC[C@H](NC(=O)/C=C(\C)c1ccc(C(F)(F)P(=O)(OCOC(=O)C(C)(C)C)OCOC(=O)C(C)(C)C)cc1)C(=O)N1C[C@H]2CC2[C@H]1C(=O)N[C@@H](CCC(N)=O)[C@@H](C)OCc1ccccc1 (stereo partly drawn) [Example 16, (2E)-3-[4-[[bis[(2,2-dimethyl-1-oxopropoxy)methoxy]phosphinyl]difluoromethyl]phenyl]-but-2-enoyl-norleucinyl-(2S,3R,4S)-methanoprolinyl-(4S,5R)-4-amino-5-benzyloxyhexamide] | – | – | – | – | – | – | – | – | negligible effects
